Data as given in ChEMBL document CHEMBL1126470, “Toward developing peptidomimetics: Successful replacement of backbone amide bonds in tetrapeptide-based CCK-A receptor agonists” (Bioorg Med Chem Lett, 1993).
pIC50: −log10 of the molar value.

Columns and labels:
[1] = target: T1, Cholecystokinin receptor type A (Cavia porcellus, UniProt Q63931); assay: Displacement of [125I]Bolton-Hunter-CCK-8 from guinea pig pancreas Cholecystokinin type A receptor
T1 sequence (Q63931 whole entry): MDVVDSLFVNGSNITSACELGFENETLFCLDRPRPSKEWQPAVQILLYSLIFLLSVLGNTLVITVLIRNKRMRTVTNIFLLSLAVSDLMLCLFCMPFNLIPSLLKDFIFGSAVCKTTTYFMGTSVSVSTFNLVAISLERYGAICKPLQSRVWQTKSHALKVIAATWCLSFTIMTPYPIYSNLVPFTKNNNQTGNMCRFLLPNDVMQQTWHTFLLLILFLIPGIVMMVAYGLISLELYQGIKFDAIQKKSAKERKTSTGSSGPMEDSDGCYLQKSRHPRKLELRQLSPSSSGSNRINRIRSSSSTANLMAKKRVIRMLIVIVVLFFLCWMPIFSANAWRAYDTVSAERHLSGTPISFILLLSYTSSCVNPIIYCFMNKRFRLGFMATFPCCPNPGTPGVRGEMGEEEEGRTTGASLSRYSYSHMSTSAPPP

Cavia porcellus = species on record: Cavia porcellus; assay: Compound was evaluated for its ability to stimulate PI hydrolysis in guinea pig pancreas relative to maximal response elicited by CCK-8; format: functional

SMILES	pIC50 [1]	Max response (Cavia porcellus)
Cc1ccccc1NC(=O)NCCCC[C@H](NC(=O)[C@H](Cc1c[nH]c2ccccc12)NC(=O)OC(C)(C)C)C(=O)N[C@H](CNN[C@@H](Cc1ccccc1)C(N)=O)CC(=O)O	6.52	6.3%
CC(C)(C)OC(=O)N[C@@H](Cc1c[nH]c2ccccc12)C(=O)N[C@@H](CCCCNC(=O)/C=C\c1ccc(O)cc1)C(=O)N[C@H](CNN[C@@H](Cc1ccccc1)C(N)=O)CC(=O)O	6.89	0%
CN(C(=O)[C@H](CC(=O)O)NNC[C@H](CCCCNC(=O)/C=C\c1ccc(O)cc1)NC(=O)[C@H](Cc1c[nH]c2ccccc12)NC(=O)OC(C)(C)C)[C@@H](Cc1ccccc1)C(N)=O	6.60	28%
CC(C)(C)OC(=O)N[C@@H](Cc1c[nH]c2ccccc12)C(=O)N[C@@H](CCCCNC(=O)/C=C\c1ccc(O)cc1)CNN[C@@H](CC(=O)O)C(=O)N[C@@H](Cc1ccccc1)C(N)=O	7.40	44%
Cc1ccccc1NC(=O)NCCCC[C@@H](CNN[C@@H](CC(=O)O)C(=O)N(C)[C@@H](Cc1ccccc1)C(N)=O)NC(=O)[C@H](Cc1c[nH]c2ccccc12)NC(=O)OC(C)(C)C	5.80	0%
CC(C)(C)OC(=O)N[C@H](CNN[C@@H](CCCCNC(=O)/C=C/c1ccc(O)cc1)C(=O)N[C@@H](CC(=O)O)C(=O)N[C@@H](Cc1ccccc1)C(N)=O)Cc1c[nH]c2ccccc12	6.03	5.6%
Cc1ccccc1NC(=O)NCCCC[C@H](NNC[C@H](Cc1c[nH]c2ccccc12)NC(=O)OC(C)(C)C)C(=O)N[C@@H](CC(=O)O)C(=O)N[C@@H](Cc1ccccc1)C(N)=O	6.33	8.9%
CSCC[C@H](NC(=O)[C@H](Cc1c[nH]c2ccccc12)NC(=O)OC(C)(C)C)C(=O)N[C@@H](CC(=O)O)C(=O)N[C@@H](Cc1ccccc1)C(N)=O		100%
CSCC[C@H](NC(=O)[C@H](Cc1ccc(OS(=O)(=O)O)cc1)NC(=O)[C@@H](N)CC(=O)O)C(=O)NCC(=O)N[C@@H](Cc1c[nH]c2ccccc12)C(=O)N[C@@H](CCSC)C(=O)N[C@@H](CC(=O)O)C(=O)N[C@@H](Cc1ccccc1)C(N)=O [SINCALIDE]		100%
